These are literature values, as cited in patent US6733485B1, “Microstimulator-based electrochemotherapy methods and systems” (Advanced Bionics Corporation, priority 2001, dated 2004).

Data set [1] concerns rat and human glioma cells.
For data set [2], the system named is multicellular prostate tumor spheroids. As to conditions: DC electrical field 500 V/m for 90 seconds.
Data set [3] concerns metastatic lesion of oral fibrosarcoma.
For data set [4], the system named is tumors in mice.
The test system of data set [5] is malignant melanoma skin metastases.
The conditions of data set [6]: in vitro, administered along with electrical stimulation.
Data set [7] has as its system permeation nodules of head and neck squamous cell carcinomas.
Data set [8] concerns subcutaneous metastasis of hypernephroma. The note with it: three sessions over four weeks, electric pulses 10 minutes after intravenous injection.
Data set [9] deals with subcutaneously established colorectal tumor.
Data set [10] has as its system human T98G glioma cells.
For data set [11], the system named is cutaneous and subcutaneous tumors.
Data set [12] has as its system HNSCC permeation nodules, salivary cancer, and breast cancer. As to conditions: electrochemotherapy.

Where a name gives a salt, the structure may show the parent alone. Read-outs that look alike come from different tables or passages of the source.

For `COc1cc([C@@H]2c3cc4c(cc3[C@@H](O[C@@H]3O[C@@H]5CO[C@@H](C)O[C@H]5[C@H](O)[C@H]3O)[C@H]3COC(=O)[C@H]23)OCO4)cc(OC)c1O` [etoposide], the “enhancement of cytotoxicity by electric stimulation” value (from here on “enhancement of cytotoxicity”) in data set [1] is on record as “no electrochemotherapy enhancement”.
`COc1cccc2c1C(=O)c1c(O)c3c(c(O)c1C2=O)C[C@@](O)(C(=O)CO)C[C@@H]3O[C@H]1C[C@H](N)[C@H](O)[C@H](C)O1` [doxorubicin]: the uptake of doxorubicin result in data set [2] is reported as “did increase their uptake of doxorubicin”.
For `O=P1(N(CCCl)CCCl)NCCCO1` (centres unmarked) [cyclophosphamide], the “effect on tumor growth” value in [3] (cyclophosphamide injection alone) was “no significant suppressive effect”. The tumor size result in [3] (intraperitoneal injection followed by local electric pulses, several days after treatment) is “markedly reduced in size”.
Regarding `CC[C@]1(O)C[C@H]2CN(CCc3c([nH]c4ccccc34)[C@@](C(=O)OC)(c3cc4c(cc3OC)N(C=O)[C@H]3[C@@](O)(C(=O)OC)[C@H](OC(C)=O)[C@]5(CC)C=CCN6CC[C@]43[C@@H]65)C2)C1` [vincristine], in data set [1], the “enhancement of cytotoxicity” value is given as “no electrochemotherapy enhancement”.
As to `N.N.[Cl][Pt][Cl]` [cisplatin], in [4] (all time points tested), the “platinum bound to DNA, electrochemotherapy versus cisplatin treated tumors” value is on record as “Approximately two”. The tumor growth delay entry in data set [4] (cisplatin treatment without electric pulses, intratumoral 1-8 mg/kg) was “up to 20 days”. Moreover, the “tumor cures (local tumor control plateau)” value in [4] (electrochemotherapy, 4 mg/kg, eight pulses 100 μsec, 1 Hz, 1040 V) was 67%. Moreover, the results for the “median time to progression” value in data set [5] (chemotherapy-treated nodules (cisplatin alone)) and in data set [5] (electrochemotherapy-treated nodules) were “four” and 21 weeks, respectively. The tumor nodules responded is on record as 22% in data set [5] (cisplatin alone, 18 nodules) and 48% in [5] (electrochemotherapy, four weeks after treatment, 27 nodules).
Regarding `Cc1ncc(CNC(=O)N(CCCl)N=O)c(N)n1` [nimustine hydrochloride], the “enhancement of cytotoxicity” value in data set [1] (carboplatin: high dose) is recorded as “no electrochemotherapy enhancement”.
On to `N.N.O=C([O-])C1(C(=O)[O-])CCC1.[Pt+2]` [carboplatin], for which, in [1] (carboplatin: high dose), the “enhancement of cytotoxicity” value is recorded as “only slightly enhanced”.
For bleomycin, the “factor by which the dose of bleomycin can be reduced” value in data set [6] was 100-5000. In addition, the side effects entry in data set [7] (10 mg/m^2 intravenous bolus plus electric pulses, eight patients) is “Neither local nor general side effects were observed”. Also, the “nodules with clinical complete response” value in [7] (10 mg/m^2 intravenous bolus, then 4 or 8 cycles of 100 μsec pulses at 1300 V/cm, 40 nodules, within a few days) is 57%. The “time for which tumor volume was stabilized” value in [8] is 12 months. The tumor development entry in data set [9] (intratumoral, intravenous or intraperitoneal, 1/50 to 1/2 of LD50, 500 to 2,000 V/cm) was “Significant suppression of tumor development and even some cures”. Further, the “cures on repeated electrochemotherapy” value in [9] (lowest dose of bleomycin and lowest electric field intensity, repeated) is listed as “complete cures of colorectal cancer were achieved in all animals”. In addition, the “increase of toxicity of bleomycin by electric stimulation” value in data set [10] (8 cycles, 1 Hz square wave, 100 μsecond, 1000 V/cm) is reported as “more than 1000 fold”. In addition, in data set [10] (bleomycin concentration 100 pg/ml), the “increase of toxicity at reduced bleomycin concentration” value is listed as “This increase disappeared”. Besides, the “complete responses in nodules” value in [11] (bleomycin only, no electric pulses) was “No complete responses”. The “patients responding to the treatment” value in data set [11] (bleomycin plus 6-8 pulses, 1300 V/cm, 34 patients) is listed as “All patients responded”. In [11] (bleomycin plus electric pulses), the “nodules with complete responses” value is given as 91% and the side effects entry is recorded as “no significant side effects were noted”. Further, in [11] (bleomycin plus electric pulses, within 12 weeks), the “metastatic nodules or primary tumors with responses” value is listed as 142 of 143. In [12], the “effectiveness after intraarterial or intranodular injection” value is on record as “effective”. Further, the antitumor effects result in data set [12] (seven patients) is given as “Clear antitumor effects were obtained”.
